Experimental data as given in article PMC10612060 (Viruses, 2023).
Where “and” joins values, the source holds several entries; their conditions need not be identical. Equal entries are not always repeated. Where two headings read alike, the source gives them in different places.

What was measured:
[1] = test system: SARS-CoV-2 gamma strain hCoV-19/Japan/TY7-501/2021; format: in vivo, BALB/c mice
in vivo = assay: in vivo; design: species or system mice; details: mouse plasma, simulated; for Cmax / AUC(0-t): BALB/c, mouse, in vivo, po; for AUC(0-t): read-out: AUC0–48h
[2] = Adverse effects in rodents at exposure of the maximum dose; format: in vivo; details: same exposure conditions as the maximum dose administered to mice
[3] = test system: SARS-CoV-2 gamma strain (hCoV-19/Japan/TY7-501/2021); details: cited from earlier work; for Viral titer in lungs: twice daily for 2 d, Day 2, individual mice 1-5, previously reported ref 12
[4] = test system: SARS-CoV-2 gamma strain (hCoV-19/Japan/TY7-501/2021); design: method as in earlier work; details: extrapolated to 100% mouse serum, cited from earlier work
[5] = 8 mg/kg, thrice daily for 2 d, 8 mg/kg oral
[6] = 8 mg/kg, twice daily for 2 d, 8 mg/kg oral
[7] = 16 mg/kg, once daily for 2 d, 16 mg/kg oral
[8] = 16 mg/kg, thrice daily for 2 d, 16 mg/kg oral
[9] = 16 mg/kg, twice daily for 2 d, 16 mg/kg oral
[10] = 32 mg/kg, once daily for 2 d, 32 mg/kg oral
[11] = 32 mg/kg, one shot, 32 mg/kg oral
[12] = 32 mg/kg, thrice daily for 2 d, 32 mg/kg oral
[13] = 32 mg/kg, twice daily for 2 d, 32 mg/kg oral
[14] = 64 mg/kg, once daily for 2 d, 64 mg/kg oral
[15] = 64 mg/kg, one shot, 64 mg/kg oral
[16] = 64 mg/kg, thrice daily for 2 d, 64 mg/kg oral
[17] = 64 mg/kg, twice daily for 2 d, 64 mg/kg oral

For `Cn1cnc(Cn2c(=O)[nH]/c(=N\c3cc4cn(C)nc4cc3Cl)n(Cc3cc(F)c(F)cc3F)c2=O)n1` [ensitrelvir, ensitrelvir fumaric acid], the “Antiviral activity when administration delayed 72 h post-infection” value ([1]; given during the viral clearance phase) was “dose-dependent antiviral activity”, the “Dose that significantly lowered lung viral titers compared to vehicle” value ([1]; mouse, in vivo) was at least 8 mg/kg and the Cmax (in vivo; [5]) was 21500 ng/mL. The AUC(0-t) (in vivo; [5]) was 657 µg·h/mL, the Cmax (in vivo; [6]) was 18100 ng/mL and the AUC(0-t) (in vivo; [6]) was 446 µg·h/mL. The Cmax (in vivo; [7]) was 38800 ng/mL, the AUC(0-t) (in vivo; [7]) was 475 µg·h/mL and the Cmax (in vivo; [8]) was 47600 ng/mL. The AUC(0-t) (in vivo; [8]) was 1390 µg·h/mL, the Cmax (in vivo; [9]) was 41300 ng/mL and the AUC(0-t) (in vivo; [9]) was 941 µg·h/mL. For the same compound, the Cmax (in vivo; [10]) was 72500 ng/mL, the AUC(0-t) (in vivo; [10]) was 1020 µg·h/mL and the Cmax (in vivo; [11]) was 72400 ng/mL. It also gave an AUC(0-t) (in vivo; [11]) of 510 µg·h/mL, a Cmax (in vivo; [12]) of 96000 ng/mL and an AUC(0-t) (in vivo; [12]) of 2960 µg·h/mL. It also gave a Cmax (in vivo; [13]) of 79700 ng/mL, an AUC(0-t) (in vivo; [13]) of 2010 µg·h/mL and a Cmax (in vivo; [14]) of 160000 ng/mL. For the same compound, the AUC(0-t) (in vivo; [14]) was 2670 µg·h/mL, the Cmax (in vivo; [15]) was 159000 ng/mL and the AUC(0-t) (in vivo; [15]) was 1340 µg·h/mL. It also gave a Cmax (in vivo; [16]) of 232000 ng/mL, an AUC(0-t) (in vivo; [16]) of 7650 µg·h/mL and a Cmax (in vivo; [17]) of 188000 ng/mL. The AUC(0-t) (in vivo; [17]) was 5230 µg·h/mL, the C48h (in vivo; once daily for 2 d, 16 mg/kg oral) was 75.8 ng/mL and the C48h (in vivo; once daily for 2 d, 32 mg/kg oral) was 210 ng/mL. For the same compound, the C48h (in vivo; once daily for 2 d, 64 mg/kg oral) was 1290 ng/mL, the C48h (in vivo; one shot, 32 mg/kg oral) was 0.0591 ng/mL and the C48h (in vivo; one shot, 64 mg/kg oral) was 1.11 ng/mL. The C48h (in vivo; thrice daily for 2 d, 8 mg/kg oral) was 5740 ng/mL, the C48h (in vivo; thrice daily for 2 d, 16 mg/kg oral) was 11,600 ng/mL and the C48h (in vivo; thrice daily for 2 d, 32 mg/kg oral) was 30,000 ng/mL. The C48h (in vivo; thrice daily for 2 d, 64 mg/kg oral) was 88,300 ng/mL, the C48h (in vivo; twice daily for 2 d, 8 mg/kg oral) was 1840 ng/mL and the C48h (in vivo; twice daily for 2 d, 16 mg/kg oral) was 3760 ng/mL. For the same compound, the C48h (in vivo; twice daily for 2 d, 32 mg/kg oral) was 11,400 ng/mL, the C48h (in vivo; twice daily for 2 d, 64 mg/kg oral) was 42,000 ng/mL and the Adverse effects [2] was “No adverse effects were observed”. For the same compound, the “Viral titer in lungs” value ([3]; 8 mg/kg oral from 24 h post-infection, 8 mg/kg) was 5.80 log10 TCID50/mL (2×) and 5.97 log10 TCID50/mL (2×) and 5.63 log10 TCID50/mL, the “Viral titer in lungs” value ([3]; 16 mg/kg oral from 24 h post-infection, 16 mg/kg) was 5.80 log10 TCID50/mL and 5.63 log10 TCID50/mL and 5.53 log10 TCID50/mL (2×) and 4.97 log10 TCID50/mL and the “Viral titer in lungs” value ([3]; 32 mg/kg oral from 24 h post-infection, 32 mg/kg) was 4.30 log10 TCID50/mL and 3.80 log10 TCID50/mL and 4.63 log10 TCID50/mL (3×). For the same compound, the “Viral titer in lungs” value ([3]; 64 mg/kg oral from 24 h post-infection, 64 mg/kg) was 2.80 log10 TCID50/mL and 3.80 log10 TCID50/mL (2×) and 3.63 log10 TCID50/mL and 3.30 log10 TCID50/mL, the “Mouse PA-EC50” value [4] was 2.09 µg/mL and the EC50 ([4]; read-out: Mouse PA-EC50) was 3.93 µM.
For `CC(C)(C)[C@H](NC(=O)C(F)(F)F)C(=O)N1C[C@H]2[C@@H]([C@H]1C(=O)N[C@H](C#N)C[C@@H]1CCNC1=O)C2(C)C` [nirmatrelvir, reference compound], the “Antiviral activity in this model” value ([3]; delayed-treatment mouse model) is given as “demonstrates antiviral activity”.
